Converted amounts (≈) assume the structure as drawn. Read-outs that look alike come from different tables or passages of the source.
Columns and labels:
[1] = test system: E. coli BW25113 ΔtolC cipR isolate GyrA Asp87Tyr; test: MIC against ciprofloxacin-resistant mutant; conditions: Escherichia coli, BW25113
Procedure: (§1) A microdilution method in 96-well plates was used and the MIC protocol established by the Clinical Laboratory Standards Institute was followed. From a growing subculture, a 1:10000 inoculum of each strain in Luria-Bertani media was prepared and aliquoted 100 μL in 4 columns of wells, except for the top row wells, which contained 200 μL of inoculum. […] The liquid in each of wells was mixed with a multi-channel pipet and 100 μL was transferred to the next well and mixed. The 2-fold dilution was continued down the 96-well plate until 100 μL was left, which was discarded. The plates were incubated at 37° C. with shaking for 16-18 hours. The MIC was determined as the lowest concentration that inhibited growth and had no turbidity by visual inspection.

Shigella boydii = test: MIC, microdilution in 96-well plates
[2] = test system: E. coli BW25113 ΔtolC cipR isolate GyrA Ser83Leu; test: MIC against ciprofloxacin-resistant mutant; conditions: Escherichia coli, BW25113
Procedure: as §1

[3] = test system: gyramide A resistant mutants of E. coli; test: MIC against gyramide A resistant mutants compared to parent strain; conditions: ratio to MIC of parent strain E. coli BW25113 ΔtolC
Procedure: as §1

[4] = test system: mutant E. coli (with a drug pump knock out); test: Killing of mutant E. coli; assay type: cell-based, Escherichia coli
Staphylococcus aureus = test: MIC, microdilution in 96-well plates
[5] = test system: E. coli BW25113 ΔtolC cipR isolate GyrB Ser464Phe; test: MIC against ciprofloxacin-resistant mutant; conditions: Escherichia coli, BW25113
Procedure: as §1

[6] = test system: E. coli BW25113 ΔtolC gyrR isolate GyrA Pro35Thr; test: MIC against gyramide-resistant mutant; conditions: Escherichia coli, BW25113
Procedure: as §1

Klebsiella pneumonia = test: MIC, microdilution in 96-well plates; conditions: Klebsiella pneumoniae
[7] = test system: ciprofloxacin resistant strains of E. coli; test: MIC against ciprofloxacin resistant strains compared to parent strain; conditions: ratio to MIC of parent strain E. coli BW25113 ΔtolC
Procedure: as §1

Enterobacter aerogenes = test: MIC, microdilution in 96-well plates; assay type: cell-based; conditions: Klebsiella aerogenes, Enterobacter aerogenes, read-out: MIC
In short: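 After 16-18 h shaking incubation at 37 °C, MIC was read visually as the lowest concentration without turbidity. Compounds were 2-fold serially diluted in LB medium seeded with a 1:10000 inoculum, following the CLSI microdilution protocol.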

[8] = test system: E. coli BW25113 ΔtolC gyrR isolate GyrA Ser97Pro; test: MIC against gyramide-resistant mutant; conditions: Escherichia coli, BW25113
Procedure: as §1

N#Cc1cccc(S(=O)(=O)N[C@@H]2CCN(Cc3ccc(-c4ccccc4)cc3)C2)c1 [Gyramide C2, gyramide C2]
MIC [1]: 0.8 µM (≈ 0.334 µg/mL)
MIC (Shigella boydii; with PAβN (60 μM)): 1.25 µM (≈ 0.522 µg/mL)
MIC (Shigella boydii; without PAβN): 80 µM (≈ 33.4 µg/mL)
MIC [2]: 0.4 µM (≈ 0.167 µg/mL)
MIC against gyramide A resistant mutants compared to the parent strain [3]: > 200 times
concentration observed to kill mutant E. coli [4]: 300 nM
MIC (Staphylococcus aureus; with PAβN (60 μM)): 40 µM (≈ 16.7 µg/mL)
MIC (Staphylococcus aureus; without PAβN): 160 µM (≈ 66.8 µg/mL)
MIC [5]: 0.4 µM (≈ 0.167 µg/mL)
MIC [6]: 25.6 µM (≈ 10.7 µg/mL)
MIC (Klebsiella pneumonia; with PAβN (60 μM)): 20 µM (≈ 8.35 µg/mL)
MIC (Klebsiella pneumonia; without PAβN): > 640 µM
MIC against ciprofloxacin resistant strains compared to the parent strain [7]: 4-8 times
MIC (Enterobacter aerogenes; Table 7, separate set of experiments): > 16 µg/mL
MIC (Enterobacter aerogenes; with PAβN (60 μM)): 10 µM
MIC (Enterobacter aerogenes; without PAβN): > 640 µM
MIC [8]: > 25.6 µM

Reference: patent publication US10253039B2, “Inhibitors of bacterial DNA gyrase with efficacy against gram-negative bacteria” (priority 2014, dated 2019)
